Results from ChEMBL document CHEMBL1201862, “PubChem BioAssay data set” (2004).
Calls of active or inactive are those of the source.

How the values were obtained:
[1] = target: T1, Voltage-gated N-type calcium channel alpha-1B subunit/Amyloid beta A4 precursor protein-binding family A member 1 (Homo sapiens, UniProt Q00975+Q02410); format: protein assay
[2] = target: T1, Voltage-gated N-type calcium channel alpha-1B subunit/Amyloid beta A4 precursor protein-binding family A member 1; format: protein assay; remark: listed apart in the source
[3] = target: DNA (cytosine-5)-methyltransferase 1 (Homo sapiens, UniProt P26358); assay: DNMT1 methyltransferase inhibitors, confirmation, biochemical, fluorescent molecular beacon (AID 602386); format: functional
[4] = target: Eukaryotic translation initiation factor 4H (Homo sapiens, UniProt Q15056); assay: human eIF4H binding inhibitors, primary screen, translation initiation inhibitor project, biochemical, uHTS, fluorescence polarization (AID 2012)
[5] = target: Polyadenylate-binding protein 1 (Homo sapiens, UniProt P11940); assay: PABP poly(A) RNA binding inhibitors, primary screen, biochemical, fluorescence polarization, uHTS (AID 2014)
Polyadenylate-binding protein 1, sequence (P11940 whole entry): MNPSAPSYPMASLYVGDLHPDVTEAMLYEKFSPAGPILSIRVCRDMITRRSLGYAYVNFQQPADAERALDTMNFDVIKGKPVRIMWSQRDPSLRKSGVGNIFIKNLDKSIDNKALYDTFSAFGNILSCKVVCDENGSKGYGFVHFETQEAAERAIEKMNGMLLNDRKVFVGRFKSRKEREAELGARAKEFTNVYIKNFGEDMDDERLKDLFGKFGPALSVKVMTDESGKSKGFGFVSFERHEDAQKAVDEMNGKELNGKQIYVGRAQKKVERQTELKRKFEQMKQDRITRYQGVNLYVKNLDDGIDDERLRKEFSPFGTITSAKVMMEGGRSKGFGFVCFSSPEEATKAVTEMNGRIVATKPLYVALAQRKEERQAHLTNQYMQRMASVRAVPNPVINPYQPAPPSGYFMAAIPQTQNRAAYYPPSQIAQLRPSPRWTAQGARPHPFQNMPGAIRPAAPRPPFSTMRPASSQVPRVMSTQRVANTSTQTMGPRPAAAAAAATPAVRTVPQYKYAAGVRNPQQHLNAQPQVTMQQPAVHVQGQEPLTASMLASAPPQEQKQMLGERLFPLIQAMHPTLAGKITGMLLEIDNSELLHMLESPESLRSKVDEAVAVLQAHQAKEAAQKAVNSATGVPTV

[6] = A cytotoxicity screen of small molecule inhibitors of the PhoP region in Salmonella typhi identified in the primary screen. [Related pubchem assays: 1850, 1864, 1985 ]; format: functional
[7] = test system: CHO-K1; assay: (§1) Counterscreen for antagonists of the orexin 1 receptor (OX1R; HCRTR1): Homogeneous time resolved fluorescence (HTRF)-based cell-based dose response assay to identify antagonists of the parental CHO-K1 cell line. [Related pubchem assays (depositor defined):AID434989, AID435008, AID463079, AID485270, AID492963, AID492964, AID492965, AID493232, AID504699, AID504701]; format: functional; conditions: Cricetulus griseus
[8] = as §1, with “Fluorescence-based” for “Homogeneous time resolved fluorescence (HTRF)-based”, “cell-based high throughput” for “cell-based”, “CHO” for “CHO-K1”; format: functional
[9] = target: T2, Orexin/Hypocretin receptor type 1 (Homo sapiens, UniProt O43613); assay: Homogeneous Time Resolved Fluorescence (HTRF)-based cell-based high throughput dose response assay for antagonists of the orexin 1 receptor (OX1R; HCRTR1). [Related pubchem assays (depositor defined):AID434989, AID435008, AID463079, AID485270, AID492963, AID492964, AID492965, AID493232, AID504717, AID504718]; format: functional
T2 sequence (O43613 whole entry): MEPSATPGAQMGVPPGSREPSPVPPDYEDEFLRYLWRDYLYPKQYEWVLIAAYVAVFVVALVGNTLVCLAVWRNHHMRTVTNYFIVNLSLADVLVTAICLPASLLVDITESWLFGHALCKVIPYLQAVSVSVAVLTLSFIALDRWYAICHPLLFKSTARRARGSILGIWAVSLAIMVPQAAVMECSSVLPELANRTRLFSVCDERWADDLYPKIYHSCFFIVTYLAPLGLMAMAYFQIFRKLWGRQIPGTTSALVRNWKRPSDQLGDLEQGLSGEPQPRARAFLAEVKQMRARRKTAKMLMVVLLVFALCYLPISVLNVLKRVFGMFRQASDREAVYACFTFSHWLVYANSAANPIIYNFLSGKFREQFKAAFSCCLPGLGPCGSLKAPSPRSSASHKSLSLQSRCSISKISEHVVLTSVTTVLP

[10] = target: T2, Orexin/Hypocretin receptor type 1; assay: Fluorescence-based cell-based high throughput dose response assay for antagonists of the orexin 1 receptor (OX1R; HCRTR1). [Related pubchem assays (depositor defined):AID434989, AID435008, AID463079, AID485270, AID492963, AID492964, AID492965, AID493232, AID504717, AID504718]; format: functional
[11] = A Cell Based Secondary Assay To Explore Cytotoxicity of Compounds that Sensitize Mycobacterium Tuberculosis to Beta-Lactam Antibiotics.; format: functional
[12] = target: T3, Short transient receptor potential channel 4 (Mus musculus, UniProt Q9QUQ5); assay: mouse TRPC4 channel inhibitors, dose response, cell-based, HEK293 TRPC4/mu-opioid, Fluo-4 calcium (AID 434942); format: functional;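 note: potency of inhibitors blocking the TRPC4 calcium response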
T3 sequence (Q9QUQ5 whole entry): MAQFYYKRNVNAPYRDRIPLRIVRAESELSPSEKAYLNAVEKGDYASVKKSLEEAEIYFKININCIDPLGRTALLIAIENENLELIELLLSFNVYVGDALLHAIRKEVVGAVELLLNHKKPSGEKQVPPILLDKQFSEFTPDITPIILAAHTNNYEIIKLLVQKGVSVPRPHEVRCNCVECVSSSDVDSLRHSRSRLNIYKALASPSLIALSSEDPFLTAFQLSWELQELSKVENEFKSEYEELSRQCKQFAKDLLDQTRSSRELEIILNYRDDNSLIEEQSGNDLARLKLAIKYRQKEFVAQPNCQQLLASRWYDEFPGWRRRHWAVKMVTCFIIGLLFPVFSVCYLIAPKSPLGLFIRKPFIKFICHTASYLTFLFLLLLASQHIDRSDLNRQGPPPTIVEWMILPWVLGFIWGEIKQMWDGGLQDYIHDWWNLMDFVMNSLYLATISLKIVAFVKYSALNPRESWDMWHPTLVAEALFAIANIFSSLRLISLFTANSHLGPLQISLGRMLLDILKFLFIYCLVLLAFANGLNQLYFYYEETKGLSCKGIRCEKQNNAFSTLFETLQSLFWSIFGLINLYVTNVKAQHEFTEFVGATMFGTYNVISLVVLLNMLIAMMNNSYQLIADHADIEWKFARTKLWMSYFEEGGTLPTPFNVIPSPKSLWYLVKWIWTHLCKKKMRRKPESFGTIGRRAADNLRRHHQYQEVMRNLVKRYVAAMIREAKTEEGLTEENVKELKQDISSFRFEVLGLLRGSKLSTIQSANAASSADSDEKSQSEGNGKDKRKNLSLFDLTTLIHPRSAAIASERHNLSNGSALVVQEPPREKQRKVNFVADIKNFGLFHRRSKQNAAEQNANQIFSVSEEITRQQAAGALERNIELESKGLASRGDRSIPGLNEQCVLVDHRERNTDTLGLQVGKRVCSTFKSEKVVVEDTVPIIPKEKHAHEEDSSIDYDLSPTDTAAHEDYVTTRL

[13] = target: DNA damage-inducible transcript 3 protein (Mus musculus, UniProt P35639); format: functional, Cricetulus griseus
DNA damage-inducible transcript 3 protein, sequence (P35639 whole entry): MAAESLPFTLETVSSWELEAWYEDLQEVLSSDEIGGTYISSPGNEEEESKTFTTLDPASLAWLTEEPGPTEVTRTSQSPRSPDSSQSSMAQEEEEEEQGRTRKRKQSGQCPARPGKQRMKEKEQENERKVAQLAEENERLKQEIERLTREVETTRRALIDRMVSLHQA

T1 sequence (Q00975 whole entry): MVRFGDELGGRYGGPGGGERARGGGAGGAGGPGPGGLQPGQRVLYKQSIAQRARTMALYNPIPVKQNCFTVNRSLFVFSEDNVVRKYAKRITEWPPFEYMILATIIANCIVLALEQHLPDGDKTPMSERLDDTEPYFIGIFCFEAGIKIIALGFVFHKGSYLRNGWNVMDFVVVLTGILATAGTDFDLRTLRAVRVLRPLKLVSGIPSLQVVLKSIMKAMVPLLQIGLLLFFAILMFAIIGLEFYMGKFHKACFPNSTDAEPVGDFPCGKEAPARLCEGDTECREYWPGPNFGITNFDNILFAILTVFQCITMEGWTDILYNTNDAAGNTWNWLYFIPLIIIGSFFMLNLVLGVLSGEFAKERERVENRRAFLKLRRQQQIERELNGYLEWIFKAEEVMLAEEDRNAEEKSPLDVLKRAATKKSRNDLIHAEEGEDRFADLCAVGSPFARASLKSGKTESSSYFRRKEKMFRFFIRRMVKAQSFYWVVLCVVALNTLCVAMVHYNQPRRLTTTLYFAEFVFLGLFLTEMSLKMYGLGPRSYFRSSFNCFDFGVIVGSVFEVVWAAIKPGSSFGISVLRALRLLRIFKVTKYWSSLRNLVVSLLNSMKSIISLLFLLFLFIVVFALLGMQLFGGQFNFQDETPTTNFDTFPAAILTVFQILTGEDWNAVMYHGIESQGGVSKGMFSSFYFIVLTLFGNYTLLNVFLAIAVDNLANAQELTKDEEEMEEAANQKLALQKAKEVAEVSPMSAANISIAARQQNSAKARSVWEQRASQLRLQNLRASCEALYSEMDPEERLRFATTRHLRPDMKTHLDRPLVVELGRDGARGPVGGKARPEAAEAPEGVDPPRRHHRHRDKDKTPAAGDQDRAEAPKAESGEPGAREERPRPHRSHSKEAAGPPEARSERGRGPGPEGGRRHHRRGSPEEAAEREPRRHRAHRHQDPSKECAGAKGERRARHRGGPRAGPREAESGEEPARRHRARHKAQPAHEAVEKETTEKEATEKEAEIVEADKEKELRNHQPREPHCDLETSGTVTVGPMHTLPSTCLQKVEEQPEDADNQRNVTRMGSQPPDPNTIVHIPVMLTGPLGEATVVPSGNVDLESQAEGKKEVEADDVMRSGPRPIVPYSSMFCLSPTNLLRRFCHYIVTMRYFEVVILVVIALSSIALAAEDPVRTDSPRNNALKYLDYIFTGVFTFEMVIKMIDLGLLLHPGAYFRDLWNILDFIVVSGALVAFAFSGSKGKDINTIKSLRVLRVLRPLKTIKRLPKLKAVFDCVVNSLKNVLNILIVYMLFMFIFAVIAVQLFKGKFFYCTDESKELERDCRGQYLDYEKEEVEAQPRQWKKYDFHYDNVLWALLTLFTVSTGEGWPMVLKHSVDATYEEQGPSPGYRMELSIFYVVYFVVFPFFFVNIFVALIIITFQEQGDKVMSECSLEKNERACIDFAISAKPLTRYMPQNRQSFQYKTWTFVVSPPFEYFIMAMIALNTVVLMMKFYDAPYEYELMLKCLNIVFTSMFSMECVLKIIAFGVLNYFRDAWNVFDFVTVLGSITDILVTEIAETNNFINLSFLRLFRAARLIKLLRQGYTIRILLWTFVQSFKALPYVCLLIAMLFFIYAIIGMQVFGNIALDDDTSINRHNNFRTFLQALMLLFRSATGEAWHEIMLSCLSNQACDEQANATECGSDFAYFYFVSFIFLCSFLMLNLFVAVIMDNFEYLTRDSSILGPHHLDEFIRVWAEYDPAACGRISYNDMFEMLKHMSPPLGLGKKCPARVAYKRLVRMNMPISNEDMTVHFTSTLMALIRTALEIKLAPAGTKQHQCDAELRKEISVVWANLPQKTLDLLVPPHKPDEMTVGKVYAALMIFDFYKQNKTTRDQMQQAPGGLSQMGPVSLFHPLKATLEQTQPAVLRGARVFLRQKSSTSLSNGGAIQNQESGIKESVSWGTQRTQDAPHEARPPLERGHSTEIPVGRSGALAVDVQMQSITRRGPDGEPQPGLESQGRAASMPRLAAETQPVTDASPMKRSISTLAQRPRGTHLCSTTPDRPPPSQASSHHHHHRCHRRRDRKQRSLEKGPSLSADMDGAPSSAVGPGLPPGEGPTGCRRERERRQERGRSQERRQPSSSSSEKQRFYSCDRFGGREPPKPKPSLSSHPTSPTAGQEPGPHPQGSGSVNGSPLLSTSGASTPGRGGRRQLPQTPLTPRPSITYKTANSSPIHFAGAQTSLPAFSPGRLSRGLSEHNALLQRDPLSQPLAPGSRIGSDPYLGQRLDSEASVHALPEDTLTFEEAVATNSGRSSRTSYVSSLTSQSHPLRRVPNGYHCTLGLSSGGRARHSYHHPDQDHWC
T1 sequence (Q02410 whole entry): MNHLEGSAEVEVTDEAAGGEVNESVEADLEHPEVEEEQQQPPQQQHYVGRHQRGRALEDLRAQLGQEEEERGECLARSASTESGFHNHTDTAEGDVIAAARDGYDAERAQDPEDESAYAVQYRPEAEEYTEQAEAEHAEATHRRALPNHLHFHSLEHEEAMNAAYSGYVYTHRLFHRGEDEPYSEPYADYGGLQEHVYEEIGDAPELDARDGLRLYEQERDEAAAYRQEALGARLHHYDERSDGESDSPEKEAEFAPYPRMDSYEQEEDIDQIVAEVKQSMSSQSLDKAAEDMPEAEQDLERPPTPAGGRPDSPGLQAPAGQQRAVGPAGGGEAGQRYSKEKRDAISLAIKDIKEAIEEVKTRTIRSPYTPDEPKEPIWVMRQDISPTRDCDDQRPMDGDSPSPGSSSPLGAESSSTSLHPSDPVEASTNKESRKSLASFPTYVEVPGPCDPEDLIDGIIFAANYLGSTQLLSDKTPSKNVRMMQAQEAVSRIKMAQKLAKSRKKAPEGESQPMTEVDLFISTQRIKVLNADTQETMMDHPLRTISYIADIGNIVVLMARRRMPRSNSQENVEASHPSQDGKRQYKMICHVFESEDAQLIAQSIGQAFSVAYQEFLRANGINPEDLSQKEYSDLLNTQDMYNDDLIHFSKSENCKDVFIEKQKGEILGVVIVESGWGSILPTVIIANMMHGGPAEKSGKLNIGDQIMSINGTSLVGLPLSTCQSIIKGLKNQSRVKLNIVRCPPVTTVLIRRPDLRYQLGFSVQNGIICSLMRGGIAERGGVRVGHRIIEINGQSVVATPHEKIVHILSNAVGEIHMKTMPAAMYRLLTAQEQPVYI

SMILES: O=C(CN1C(=O)S/C(=C\c2ccc(-c3cc(C(=O)O)ccc3Cl)o2)C1=O)Nc1ccc2c(c1)OCO2
- IC50 [1]: > 56.8 µM (not active)
- IC50 [2]: > 50 µM (inactive)
- IC50 [3]: > 99 µM (inactive)

SMILES: CCN1C(NCCc2ccccn2)=N[C@@H](c2cccc(F)c2)C(C(=O)OC)=C1C
- IC50 [4]: > 100 µM (inactive)
- IC50 [5]: 13.4 µM (active)

SMILES: COC(=O)c1cc2oc(C)cc2n1CC(=O)Nc1ccc(C)c(C)c1
- EC50 [6]: > 50 µM (active)

SMILES: Cc1cc(C)nc(N=C(N)Nc2ccc(F)c([N+](=O)[O-])c2)n1
- IC50 [7]: 11.6 µM (inactive)
- IC50 [8]: 17.8 µM (inactive)
- IC50 [9]: 10.1 µM (inactive)
- IC50 [10]: 15.1 µM (inactive)

SMILES: O=C(c1cccc(C(=O)N2CCN(c3ccc(F)cc3)CC2)c1)N1CCN(c2ccc(F)cc2)CC1
- CC50 [11]: > 40 µM (active)
- EC50 [12]: 0.841 µM (active)

SMILES: CCc1ccc(OCCNC(=O)c2ccccc2SCc2ccccc2)cc1
- Absolute IC50 (CHOP) [13]: 10 µM

SMILES: CCn1nc(NC(C)=O)c2cc3cccc(C)c3nc21
- IC50 [4]: > 100 µM (inactive)
- IC50 [5]: 7.59 µM (active)

SMILES: CN1CCc2nc(SCC(=O)Nc3ccc(Cl)cc3)c(C#N)cc2C1
- EC50 [6]: > 50 µM (active)
